Experimental data from PubChem BioAssay AID328 (DTP/NCI, 2004).
Values joined by “and” are separate entries in the source; they are usually repeats but may differ in a detail not shown here. Equal values may be shown once. Inconclusive results and toxic doses are left out.

Tested on: BDF1 mice, P388 leukemia ip, median survival T/C
Test: NCI In Vivo Anticancer Drug Screen. Data for tumor model P388 Leukemia (intraperitoneal) in B6D2F1 (BDF1) mice
Details: endpoint: median survival time, higher = longer survival
Outline: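 Antitumour effect was judged in vivo: survival in drug-treated mice, normalised to that of vehicle-dosed controls, gives the reported T/C.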

[1] = dose: 50.0 mg/kg/injection, schedule: Q01DX009 (ip), vehicle: saline with Tween-80
[2] = dose: 25.0 mg/kg/injection, schedule: Q01DX009 (ip), vehicle: saline
[3] = dose: 50.0 mg/kg/injection, schedule: Q01DX009 (ip), vehicle: saline
[4] = dose: 100.0 mg/kg/injection, schedule: Q01DX009 (ip), vehicle: Klucel (hydroxypropylcellulose) (HPC)
[5] = dose: 100.0 mg/kg/injection, schedule: Q04DX003 (ip), vehicle: Klucel (hydroxypropylcellulose) (HPC)
[6] = dose: 200.0 mg/kg/injection, schedule: Q01DX009 (ip), vehicle: Klucel (hydroxypropylcellulose) (HPC)
[7] = dose: 200.0 mg/kg/injection, schedule: Q04DX003 (ip), vehicle: Klucel (hydroxypropylcellulose) (HPC)
[8] = dose: 400.0 mg/kg/injection, schedule: Q01DX009 (ip), vehicle: Klucel (hydroxypropylcellulose) (HPC)
[9] = dose: 400.0 mg/kg/injection, schedule: Q04DX003 (ip), vehicle: Klucel (hydroxypropylcellulose) (HPC)
[10] = dose: 50.0 mg/kg/injection, schedule: Q01DX009 (ip), vehicle: Klucel (hydroxypropylcellulose) (HPC)

SMILES: CN=S(=O)(OCCCCCCCCCOS(=O)(=NC)c1ccc(C)cc1)c1ccc(C)cc1 (centres undefined)
- T/C (dose: 12.5 mg/kg/injection, schedule: Q01DX009 (ip), vehicle: saline with Tween-80): 108 % of control
- T/C [1]: 117 % of control

SMILES: c1ccc2c(c1)OP(OP1Oc3ccccc3O1)O2
- T/C [2]: 95 % of control
- T/C [3]: 113 % of control
- T/C (dose: 150.0 mg/kg/injection, schedule: Q04DX003 (ip), vehicle: saline): 113 % of control

SMILES: CCOC(=O)C1CCC(C(=O)OCC)N1c1ccc(C=O)cc1 (centres undefined)
- T/C [4]: 122 % of control
- T/C [5]: 105 % of control
- T/C [6]: 105 % of control
- T/C [7]: 100 % of control
- T/C [8]: 122 % of control
- T/C [9]: 100 % of control

SMILES: CC(NC(=O)OCc1ccccc1)C(=O)NCCN(C)C (centres undefined)
- T/C (dose: 50.0 mg/kg/injection, schedule: Q01DX005 (ip), vehicle: saline): 100 % of control
- T/C (dose: 100.0 mg/kg/injection, schedule: Q01DX005 (ip), vehicle: saline): 91 % of control
- T/C (dose: 200.0 mg/kg/injection, schedule: Q01DX005 (ip), vehicle: saline): 100 % of control

SMILES: CCOc1nc(N)c(C(N)=O)cc1C#N
- T/C (dose: 25.0 mg/kg/injection, schedule: Q01DX009 (ip), vehicle: saline with Tween-80): 105 % of control
- T/C [1]: 110 % of control
- T/C (dose: 66.0 mg/kg/injection, schedule: Q01DX009 (ip), vehicle: saline with Tween-80): 92 % of control and 110 % of control
- T/C (dose: 100.0 mg/kg/injection, schedule: Q01DX009 (ip), vehicle: saline with Tween-80): 150 % of control
- T/C (dose: 150.0 mg/kg/injection, schedule: Q01DX009 (ip), vehicle: saline with Tween-80): 88 % of control and 95 % of control

SMILES: CCOC(=O)C(C(=O)OCC)C1c2ccccc2C(=NO)c2ccccc21 (centres undefined)
- T/C [4]: 100 % of control
- T/C [5]: 112 % of control
- T/C [6]: 109 % of control
- T/C [7]: 104 % of control
- T/C [8]: 109 % of control
- T/C [9]: 91 % of control

SMILES: COc1cc2cc[n+]3c(C)c4cc5c(cc4cc3c2cc1OC)OCO5 (tested in a mixture with another compound)
- T/C (dose: 2.2 mg/kg/injection, schedule: Q01DX009 (ip), vehicle: saline): 158 % of control
- T/C (dose: 3.3 mg/kg/injection, schedule: Q01DX009 (ip), vehicle: saline): 163 % of control
- T/C (dose: 5.0 mg/kg/injection, schedule: Q01DX009 (ip), vehicle: saline): 174 % of control
- T/C (dose: 7.5 mg/kg/injection, schedule: Q01DX009 (ip), vehicle: saline): 186 % of control
- T/C (dose: 12.5 mg/kg/injection, schedule: Q01DX009 (ip), vehicle: saline): 230 % of control
- T/C [2]: 123 % of control
- T/C [3]: 102 % of control

SMILES: O=C(/C=N/O)c1cccnc1
- T/C (dose: 25.0 mg/kg/injection, schedule: Q04DX003 (ip), vehicle: saline sonified): 100 % of control
- T/C (dose: 50.0 mg/kg/injection, schedule: Q04DX003 (ip), vehicle: saline sonified): 95 % of control
- T/C (dose: 100.0 mg/kg/injection, schedule: Q04DX003 (ip), vehicle: saline sonified): 100 % of control

SMILES: CC1(C)N=C(N)N=C(N)N1c1ccc(-c2ccccc2)cc1
- T/C (dose: 25.0 mg/kg/injection, schedule: Q01DX009 (ip), vehicle: Klucel (hydroxypropylcellulose) (HPC)): 99 % of control
- T/C [10]: 106 % of control

SMILES: OC(CBr)C(O)C(O)C(O)CBr (centres undefined)
- T/C [10]: 105 % of control
- T/C (dose: 62.5 mg/kg/injection, schedule: Q01DX010 (ip), vehicle: saline): 104 % of control
- T/C (dose: 125.0 mg/kg/injection, schedule: Q01DX001 (ip), vehicle: carboxymethylcellulose (CMC)): 120 % of control
- T/C (dose: 125.0 mg/kg/injection, schedule: Q01DX010 (ip), vehicle: carboxymethylcellulose (CMC)): 105 % of control
- T/C (dose: 125.0 mg/kg/injection, schedule: Q01DX010 (ip), vehicle: saline): 108 % of control
- T/C (dose: 250.0 mg/kg/injection, schedule: Q01DX010 (ip), vehicle: carboxymethylcellulose (CMC)): 110 % of control
- T/C (dose: 250.0 mg/kg/injection, schedule: Q01DX010 (ip), vehicle: saline): 91 % of control
- T/C [8]: 87 % of control
- T/C (dose: 1000.0 mg/kg/injection, schedule: Q01DX001 (ip), vehicle: carboxymethylcellulose (CMC)): 170 % of control

SMILES: COC(=O)c1c([N+](=O)[O-])cccc1[N+](=O)[O-]
- T/C (dose: 50.0 mg/kg/injection, schedule: Q01DX005 (ip), vehicle: saline with Tween-80): 97 % of control
- T/C (dose: 100.0 mg/kg/injection, schedule: Q01DX005 (ip), vehicle: saline with Tween-80): 97 % of control
- T/C (dose: 200.0 mg/kg/injection, schedule: Q01DX005 (ip), vehicle: saline with Tween-80): 94 % of control
